The compounds below were run on HCV replicon cells (assay: Cell-based HCV replicon assay (replicon RNA level by real time PCR, Taqman)). Settings: Hepatitis C virus, 72 h, HCV replicon cells, harvested on day 3, replicon RNA by real time PCR; calculated EC90 reported as range class; read-out: EC90 (μM) range.
In short: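 Readout: ΔCT between NS5B replicon RNA and GAPDH by real-time RT-PCR in lysates harvested on day 3, fitted sigmoidally; EC50 at ΔCT=1, EC90 at ΔCT=3.2. Compounds tested at ten 2-fold dilutions from 25 μM to 1 μM start, 10% FBS, 0.5% DMSO.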

`Cc1cc(CNc2nc(C)c(-c3nc4ccccc4s3)c(N[C@@H]3C[C@H](CO)[C@@H](O)[C@H]3O)n2)no1` [Example 492] and `Cc1cc(CNc2nc(C)c(-c3nc4ccccc4s3)c(N[C@@H]3C[C@H](CO)[C@@H](O)[C@H]3O)n2)on1` [Example 493] cannot be ordered by EC90: < 0.5 µM for the first, < 0.5 µM for the second.

First: Cc1nc(CNc2nc(C)c(-c3nc4ccccc4s3)c(N[C@@H]3C[C@H](CO)[C@H]4OC(C)(C)O[C@H]43)n2)cs1 [Example 494]
Second: Cc1ccc(CNc2nc(C)c(-c3nc4ccccc4s3)c(N[C@@H]3C[C@H](CO)[C@H]4OC(C)(C)O[C@H]43)n2)s1 [Example 496]
The EC90 of the first is higher: > 5 µM for the first, < 0.5 µM for the second.

`Cc1nc(CNc2nc(C)c(-c3nc4ccccc4s3)c(N[C@@H]3C[C@H](CO)[C@@H](O)[C@H]3O)n2)cs1` [Example 495] and `Cc1csc(CNc2nc(C)c(-c3nc4ccccc4s3)c(N[C@@H]3C[C@H](CO)[C@@H](O)[C@H]3O)n2)n1` [Example 707] cannot be ordered by EC90: < 0.5 µM for the first, < 0.5 µM for the second.

`Cc1ccc(CNc2nc(C)c(-c3nc4ccccc4s3)c(N[C@@H]3C[C@H](CO)[C@@H](O)[C@H]3O)n2)s1` [Example 497] and `Cc1cccnc1CNc1nc(C)c(-c2nc3ccccc3s2)c(N[C@@H]2C[C@H](CO)[C@@H](O)[C@H]2O)n1` [Example 499] cannot be ordered by EC90: < 0.5 µM for the first, < 0.5 µM for the second.

First: Cc1cccnc1CNc1nc(C)c(-c2nc3ccccc3s2)c(N[C@@H]2C[C@H](CO)[C@H]3OC(C)(C)O[C@H]32)n1 [Example 498]
Second: Cc1cc(C)cc(CNc2nc(C)c(-c3nc4ccccc4s3)c(N[C@@H]3C[C@H](CO)[C@H]4OC(C)(C)O[C@H]43)n2)c1 [Example 712]
The EC90 of the first is higher: > 5 µM for the first, < 0.5 µM for the second.

`COc1cc(CNc2nc(C)c(-c3nc4ccccc4s3)c(N[C@@H]3C[C@H](CO)[C@H]4OC(C)(C)O[C@H]43)n2)cc(OC)c1` [Example 500] and `COc1ccc(CNc2nc(C)c(-c3nc4ccccc4s3)c(N[C@@H]3C[C@H](CO)[C@H]4OC(C)(C)O[C@H]43)n2)cc1OC` [Example 708] cannot be ordered by EC90: < 0.5 µM for the first, < 0.5 µM for the second.

`CCc1cc2cc(-c3c(Cl)nc(NCCOC)nc3N[C@@H]3C[C@H](CO)[C@@H](O)[C@H]3O)oc2cn1` [Example 501] and `CCOCCNc1nc(Cl)c(-c2cc3cc(CC)ncc3o2)c(N[C@@H]2C[C@H](CO)[C@@H](O)[C@H]2O)n1` [Example 512] cannot be ordered by EC90: < 0.5 µM for the first, < 0.5 µM for the second.

`CCc1cc2cc(-c3c(Cl)nc(NC(C)C)nc3N[C@@H]3C[C@H](CO)[C@@H](O)[C@H]3O)oc2cn1` [Example 502] and `CCc1cc2cc(-c3c(Cl)nc(NCC(C)C)nc3N[C@@H]3C[C@H](CO)[C@@H](O)[C@H]3O)oc2cn1` [Example 518] cannot be ordered by EC90: < 0.5 µM for the first, < 0.5 µM for the second.

`CCc1cc2cc(-c3c(Cl)nc(NCC4CC4)nc3N[C@@H]3C[C@H](CO)[C@@H](O)[C@H]3O)oc2cn1` [Example 503] and `CCc1cc2cc(-c3c(C)nc(NCC4CC4)nc3N[C@@H]3C[C@H](CO)[C@@H](O)[C@H]3O)oc2cn1` [Example 509] cannot be ordered by EC90: < 0.5 µM for the first, < 0.5 µM for the second.

`OC[C@H]1C[C@@H](Nc2nc(NCC3CC3)nc(Cl)c2-c2nc3ccccc3s2)[C@H](O)[C@@H]1O` [Example 504] and `Cc1nc(NCC2CC2)nc(N[C@@H]2C[C@H](CO)[C@@H](O)[C@H]2O)c1-c1nc2ccccc2s1` [Example 505] cannot be ordered by EC90: < 0.5 µM for the first, < 0.5 µM for the second.

`CCC(C)(C)Nc1nc(Cl)c(-c2nc3ccccc3s2)c(N[C@@H]2C[C@H](CO)[C@@H](O)[C@H]2O)n1` [Example 506] and `CCC(C)(C)Nc1nc(C)c(-c2nc3ccccc3s2)c(N[C@@H]2C[C@H](CO)[C@@H](O)[C@H]2O)n1` [Example 513] cannot be ordered by EC90: < 0.5 µM for the first, < 0.5 µM for the second.

Compared with `CC(=O)N1CCC(Nc2nc(Cl)c(-c3nc4ccccc4s3)c(N[C@@H]3C[C@H](CO)[C@@H](O)[C@H]3O)n2)CC1` [Example 507], `OC[C@H]1C[C@@H](Nc2nc(NC3CCNCC3)nc(Cl)c2-c2nc3ccccc3s2)[C@H](O)[C@@H]1O` [Example 510] is higher in EC90: < 0.5 µM for the first, > 5 µM for the second.

`CCc1cc2cc(-c3c(C)nc(NCCOC)nc3N[C@@H]3C[C@H](CO)[C@@H](O)[C@H]3O)oc2cn1` [Example 508] and `CCOCCNc1nc(C)c(-c2cc3cc(CC)ncc3o2)c(N[C@@H]2C[C@H](CO)[C@@H](O)[C@H]2O)n1` [Example 515] cannot be ordered by EC90: < 0.5 µM for the first, < 0.5 µM for the second.

`CCCCCNc1nc(Cl)c(-c2cc3cc(CC)ncc3o2)c(N[C@@H]2C[C@H](CO)[C@@H](O)[C@H]2O)n1` [Example 511] and `CCCCCNc1nc(C)c(-c2cc3cc(CC)ncc3o2)c(N[C@@H]2C[C@H](CO)[C@@H](O)[C@H]2O)n1` [Example 514] cannot be ordered by EC90: < 0.5 µM for the first, < 0.5 µM for the second.

`CCc1cc2cc(-c3c(Cl)nc(NCC(F)(F)F)nc3N[C@@H]3C[C@H](CO)[C@@H](O)[C@H]3O)oc2cn1` [Example 516] and `CCc1cc2cc(-c3c(Cl)nc(NCCC(F)(F)F)nc3N[C@@H]3C[C@H](CO)[C@@H](O)[C@H]3O)oc2cn1` [Example 520] cannot be ordered by EC90: < 0.5 µM for the first, < 0.5 µM for the second.

`CCc1cc2cc(-c3c(C)nc(NCC(F)(F)F)nc3N[C@@H]3C[C@H](CO)[C@@H](O)[C@H]3O)oc2cn1` [Example 517] and `CCc1cc2cc(-c3c(C)nc(NCCC(F)(F)F)nc3N[C@@H]3C[C@H](CO)[C@@H](O)[C@H]3O)oc2cn1` [Example 521] cannot be ordered by EC90: < 0.5 µM for the first, < 0.5 µM for the second.

`CCc1cc2cc(-c3c(C)nc(NCC(C)C)nc3N[C@@H]3C[C@H](CO)[C@@H](O)[C@H]3O)oc2cn1` [Example 519] and `CCc1cc2cc(-c3c(C)nc(NCc4cc(C)on4)nc3N[C@@H]3C[C@H](CO)[C@@H](O)[C@H]3O)oc2cn1` [Example 703] cannot be ordered by EC90: < 0.5 µM for the first, < 0.5 µM for the second.

First: CN(C)c1nc(Cl)c(-c2cc3ccncc3o2)c(N[C@@H]2C[C@H](CO)[C@@H](O)[C@H]2O)n1 [Example 522]
Second: CCc1cc2cc(-c3c(C)nc(NCc4ccco4)nc3N[C@@H]3C[C@H](CO)[C@@H](O)[C@H]3O)oc2cn1 [Example 705]
The EC90 of the first is higher: 0.5 to 5 µM for the first, < 0.5 µM for the second.

`Cc1nc(NCC2CC2)nc(N[C@@H]2C[C@H](CO)[C@@H](O)[C@H]2O)c1-c1nc2cnccc2s1` [Example 523] and `COc1cc(CNc2nc(C)c(-c3nc4ccccc4s3)c(N[C@@H]3C[C@H](CO)[C@@H](O)[C@H]3O)n2)cc(OC)c1` [Example 701] cannot be ordered by EC90: < 0.5 µM for the first, < 0.5 µM for the second.

`CCc1cc2cc(-c3c(C)nc(NCc4cc(C)on4)nc3N[C@@H]3C[C@H](CO)[C@H]4OC(C)(C)O[C@H]43)oc2cn1` [Example 702] and `CCc1cc2cc(-c3c(C)nc(NCc4ccco4)nc3N[C@@H]3C[C@H](CO)[C@H]4OC(C)(C)O[C@H]43)oc2cn1` [Example 704] cannot be ordered by EC90: < 0.5 µM for the first, < 0.5 µM for the second.

`COc1ccc(CNc2nc(C)c(-c3nc4ccccc4s3)c(N[C@@H]3C[C@H](CO)[C@@H](O)[C@H]3O)n2)cc1OC` [Example 709] and `COc1cc(CNc2nc(C)c(-c3nc4ccccc4s3)c(N[C@@H]3C[C@H](CO)[C@@H](O)[C@H]3O)n2)cc(OC)c1OC` [Example 711] cannot be ordered by EC90: < 0.5 µM for the first, < 0.5 µM for the second.

`COc1cc(CNc2nc(C)c(-c3nc4ccccc4s3)c(N[C@@H]3C[C@H](CO)[C@H]4OC(C)(C)O[C@H]43)n2)cc(OC)c1OC` [Example 710] was tested, and the EC90 was < 0.5 µM.

Same assay, conditions: Hepatitis C virus, 72 h, HCV replicon cells, replicon RNA level by real time PCR (Taqman), harvested on day 3; calculated EC90 reported as range class; read-out: EC90 (μM) range

`CCOCCNc1nc(C)c(-c2nc3cnccc3s2)c(N[C@@H]2C[C@H](CO)[C@@H](O)[C@H]2O)n1` [Example 525] and `COCCNc1nc(C)c(-c2nc3cnccc3s2)c(N[C@@H]2C[C@H](CO)[C@@H](O)[C@H]2O)n1` [Example 526] cannot be ordered by EC90: < 0.5 µM for the first, < 0.5 µM for the second.

`CCc1cc2cc(-c3c(C)nc(NC)nc3N[C@@H]3C[C@H](CO)[C@@H](O)[C@H]3O)oc2cn1` [Example 527] and `CCOCCNc1nc(C)c(-c2nc3ccccc3o2)c(N[C@@H]2C[C@H](CO)[C@@H](O)[C@H]2O)n1` [Example 529] cannot be ordered by EC90: < 0.5 µM for the first, < 0.5 µM for the second.

First: Cc1nc(NCC2CC2)nc(N[C@@H]2C[C@H](CO)[C@@H](O)[C@H]2O)c1-c1nc2ccccc2o1 [Example 528]
Second: Cc1nc(NCC2CC2)nc(N[C@@H]2C[C@H](CO)[C@@H](O)[C@H]2O)c1-c1nc2ccccc2n1C [Example 530]
The EC90 of the first is lower: 0.5 to 5 µM for the first, > 5 µM for the second.

Going from `CCOCCNc1nc(C)c(-c2nc3ccccc3n2C)c(N[C@@H]2C[C@H](CO)[C@@H](O)[C@H]2O)n1` [Example 531] to `CCOCCNc1nc(C)c(-c2nc3c(C)nccc3s2)c(N[C@@H]2C[C@H](CO)[C@@H](O)[C@H]2O)n1` [Example 535], the EC90 falls from > 5 µM to < 0.5 µM.

`Cc1nc(NCC(F)(F)F)nc(N[C@@H]2C[C@H](CO)[C@@H](O)[C@H]2O)c1-c1nc2cnccc2s1` [Example 532] and `Cc1nc(NCC(C)(C)C)nc(N[C@@H]2C[C@H](CO)[C@@H](O)[C@H]2O)c1-c1nc2cnccc2s1` [Example 536] cannot be ordered by EC90: < 0.5 µM for the first, < 0.5 µM for the second.

First: Cc1nc(N(C)C)nc(N[C@@H]2C[C@H](CO)[C@@H](O)[C@H]2O)c1-c1nc2cnccc2s1 [Example 533]
Second: Cc1nc(NC2CC2)nc(N[C@@H]2C[C@H](CO)[C@@H](O)[C@H]2O)c1-c1nc2cnccc2s1 [Example 534]
The EC90 of the first is higher: > 5 µM for the first, < 0.5 µM for the second.

`COc1cc(CNc2nc(C)c(-c3nc4cnccc4s3)c(N[C@@H]3C[C@H](CO)[C@@H](O)[C@H]3O)n2)cc(OC)c1` [Example 537] and `Cc1nc(NCc2ccccc2)nc(N[C@@H]2C[C@H](CO)[C@@H](O)[C@H]2O)c1-c1nc2cnccc2s1` [Example 540] cannot be ordered by EC90: < 0.5 µM for the first, < 0.5 µM for the second.

`Cc1cc(CNc2nc(C)c(-c3nc4cnccc4s3)c(N[C@@H]3C[C@H](CO)[C@@H](O)[C@H]3O)n2)on1` [Example 538] and `Cc1ccc(CNc2nc(C)c(-c3nc4cnccc4s3)c(N[C@@H]3C[C@H](CO)[C@@H](O)[C@H]3O)n2)s1` [Example 539] cannot be ordered by EC90: < 0.5 µM for the first, < 0.5 µM for the second.

`Cc1nc(NCc2nccs2)nc(N[C@@H]2C[C@H](CO)[C@@H](O)[C@H]2O)c1-c1nc2cnccc2s1` [Example 541] and `Cc1nc(N[C@H](C)c2ccccc2)nc(N[C@@H]2C[C@H](CO)[C@@H](O)[C@H]2O)c1-c1nc2cnccc2s1` [Example 543] cannot be ordered by EC90: < 0.5 µM for the first, < 0.5 µM for the second.

`Cc1ccc([C@@H](C)Nc2nc(C)c(-c3nc4cnccc4s3)c(N[C@@H]3C[C@H](CO)[C@@H](O)[C@H]3O)n2)cc1` [Example 544] was tested, and the EC90 was < 0.5 µM.
